Patent US20060069132A1, “Azolecarboxamide herbicides” (priority 2004, published 2006)

How the values were obtained:
[1] = tested on: common ragweed; test: Test C pre-/postemergence herbicide test; format: in vivo, Ambrosia elatior; set-up: key to Plant response rating, Ragweed: 0 = no effect, 100 = complete control
How it was run: (§1)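 Seeds were planted and sprayed preemergence with test chemicals in a non-phytotoxic solvent mixture containing surfactant; postemergence treatments went onto plants 2 to 18 cm tall (1- to 4-leaf stage). After 12 to 14 days in a greenhouse, injury was rated visually against untreated controls on a 0–100 scale.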

[2] = tested on: morningglory; test: Test A pre-/postemergence herbicide test; format: in vivo, Ipomoea spp.
How it was run: (§2)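 Seeds sown in sandy loam received a preemergence directed soil spray of compound in non-phytotoxic solvent with surfactant; postemergence plants (2–10 cm, one- to two-leaf stage) were sprayed to runoff at the same time. After ~10 days in greenhouse, injury was rated visually versus untreated controls (0 = no effect, 100 = complete control).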

[3] = tested on: giant foxtail; test: Test A pre-/postemergence herbicide test; format: in vivo, Setaria faberi
How it was run: as §2

[4] = tested on: goosegrass; test: Test C pre-/postemergence herbicide test; format: in vivo, Eleusine indica
How it was run: as §1

[5] = tested on: Surinam grass; test: Test C pre-/postemergence herbicide test; format: in vivo, Urochloa decumbens
How it was run: as §1

[6] = tested on: velvetleaf; test: Test C pre-/postemergence herbicide test; format: in vivo, Abutilon theophrasti
How it was run: as §1

[7] = tested on: bermudagrass; test: Test C pre-/postemergence herbicide test; format: in vivo, Cynodon dactylon
How it was run: as §1

[8] = tested on: johnsongrass; test: Test C pre-/postemergence herbicide test; format: in vivo, Sorghum halepense
How it was run: as §1

[9] = tested on: corn; test: Test C pre-/postemergence herbicide test; format: in vivo, Zea mays
How it was run: as §1

[10] = tested on: ducksalad; test: Test C flooded paddy test; format: in vivo, Heteranthera limosa; conditions: for Plant response rating, Ducksalad: 500 g ai/ha, visual rating after 12 to 14 days
[11] = tested on: barnyardgrass; test: Test C flooded paddy test; format: in vivo, Echinochloa crus-galli; conditions: for Plant response rating, Barnyardgrass: 500 g ai/ha, visual rating after 12 to 14 days
How it was run: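 Ratings (0 = no effect, 100 = complete control) come from visual comparison with untreated plants after 12 to 14 days in the greenhouse. Treatment was postemergence at the 1- to 4-leaf stage (2–18 cm), or at the 2-leaf stage for the flooded paddy barnyardgrass.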

[12] = tested on: morningglory; test: Test C pre-/postemergence herbicide test; format: in vivo, Ipomoea coccinea; set-up: key to Plant response rating, Morningglory: 0 = no effect, 100 = complete control
How it was run: as §1

[13] = tested on: large crabgrass; test: Test A pre-/postemergence herbicide test; format: in vivo, Digitaria sanguinalis
How it was run: as §2

[14] = 125 g ai/ha, scale 0 (no effect) to 100 (complete control), visual, 12 to 14 days, preemergence
[15] = Preemergence, 500 g ai/ha, scale 0 to 100, 0 no effect, 100 complete control
[16] = Postemergence, 250 g ai/ha, 0 to 100 scale, 0 no effect, 100 complete control
[17] = Postemergence, 1000 g ai/ha, 0 to 100 scale, 0 no effect, 100 complete control
[18] = Preemergence, 1000 g ai/ha, visual rating, 0 to 100 scale (0 no effect, 100 complete control)
[19] = preemergence, 250 g ai/ha, visual injury, 0 to 100 scale (0 no effect, 100 complete control)
[20] = 250 g ai/ha, scale 0 to 100 (0 no effect, 100 complete control), visual, 12 to 14 days, preemergence
[21] = 62 g ai/ha, scale 0 to 100 (0 no effect, 100 complete control)
[22] = 125 g ai/ha, scale 0 to 100 (0 no effect, 100 complete control)
[23] = 250 g ai/ha, scale of 0 to 100, 0 is no effect, 100 is complete control
[24] = scale 0 to 100 (0 no effect, 100 complete control)
[25] = 125 g ai/ha, scale of 0 to 100, 0 is no effect, 100 is complete control
[26] = Postemergence, 250 g ai/ha, scale 0 to 100, 0 no effect, 100 complete control
[27] = postemergence, 125 g ai/ha, scale 0 to 100
[28] = postemergence, 62 g ai/ha, scale 0 to 100
[29] = Postemergence, 500 g ai/ha, 0 to 100 scale, 0 no effect, 100 complete control
[30] = Postemergence, 2000 g ai/ha, 0 to 100 scale, 0 no effect, 100 complete control
[31] = Preemergence, 500 g ai/ha, visual rating, 0 to 100 scale (0 no effect, 100 complete control)
[32] = Preemergence, 2000 g ai/ha, visual rating, 0 to 100 scale (0 no effect, 100 complete control)

CCn1nc(C(C)(C)C)cc1C(=O)Nc1cccc(S(=O)(=O)C(F)(F)F)c1 [Compound 134]
Plant response rating (0 = no effect, 100 = complete control), Ragweed ([1]; 62 g ai/ha, preemergence): 0
Plant response rating, Ragweed [1, 14]: 25
Ragweed plant response rating [1, 15]: 100
Morningglory plant response rating [2, 16]: 10
Plant response rating, Morningglory [2, 17]: 20
Morningglory plant response rating [2, 18]: 30
Morningglory plant response rating [2, 19]: 5
Foxtail, Giant plant response rating [3, 16]: 15
Plant response rating, Foxtail, Giant [3, 17]: 35
Foxtail, Giant plant response rating [3, 18]: 45
Foxtail, Giant plant response rating [3, 19]: 20
Plant response rating (0 = no effect, 100 = complete control), Goosegrass ([4]; 62 g ai/ha, preemergence): 20
Plant response rating, Goosegrass [4, 14]: 65
Goosegrass plant response rating [4, 15]: 95
Plant response rating (0 = no effect, 100 = complete control), Surinam Grass ([5]; 62 g ai/ha, preemergence): 0
Plant response rating, Surinam Grass [5, 14]: 15
Surinam Grass plant response rating [5, 15]: 75
Plant response rating, Velvetleaf [6, 14]: 90
Velvetleaf plant response rating [6, 15]: 100
Plant response rating (0 = no effect, 100 = complete control), Bermudagrass ([7]; 62 g ai/ha, preemergence): 80
Plant response rating, Bermudagrass [7, 14]: 95
Plant response rating, Bermudagrass [7, 20]: 95
Bermudagrass plant response rating [7, 15]: 100
Plant response rating (0 = no effect, 100 = complete control), Johnsongrass ([8]; 62 g ai/ha, preemergence): 0
Plant response rating, Johnsongrass [8, 14]: 40
Johnsongrass plant response rating [8, 15]: 65
Plant response rating (0 = no effect, 100 = complete control), Corn ([9]; 62 g ai/ha, preemergence): 0
Plant response rating, Corn [9, 14]: 0
Plant response rating, Corn [9, 20]: 0
Corn plant response rating [9, 15]: 60
Ducksalad plant response rating [10, 21]: 45
Ducksalad plant response rating [10, 22]: 70
Ducksalad plant response rating [10, 23]: 90
Plant response rating, Ducksalad [10, 24]: 90
Barnyardgrass plant response rating [11, 21]: 10
Barnyardgrass plant response rating [11, 25]: 25
Barnyardgrass plant response rating [11, 23]: 50
Plant response rating, Barnyardgrass [11, 24]: 50
Plant response rating (0 = no effect, 100 = complete control), Morningglory ([12]; 62 g ai/ha, preemergence): 0
Plant response rating, Morningglory [12, 14]: 0
Morningglory plant response rating [12, 15]: 75
Crabgrass, Large plant response rating [13, 16]: 20
Plant response rating, Crabgrass, Large [13, 17]: 35
Crabgrass, Large plant response rating [13, 18]: 95
Crabgrass, Large plant response rating [13, 19]: 35

CCn1nc(C(C)(C)C)cc1C(=O)Nc1cccc(C#N)c1 [Compound 139]
Plant response rating (0 = no effect, 100 = complete control), Ragweed ([1]; 62 g ai/ha, preemergence): 50
Plant response rating, Ragweed [1, 14]: 50
Plant response rating, Ragweed [1, 26]: 45
Plant response rating, Ragweed [1, 27]: 45
Plant response rating, Ragweed [1, 28]: 0
Morningglory plant response rating [2, 29]: 20
Plant response rating, Morningglory [2, 30]: 35
Morningglory plant response rating [2, 31]: 30
Morningglory plant response rating [2, 32]: 85
Foxtail, Giant plant response rating [3, 29]: 20
Plant response rating, Foxtail, Giant [3, 30]: 40
Foxtail, Giant plant response rating [3, 31]: 60
Foxtail, Giant plant response rating [3, 32]: 75
Plant response rating (0 = no effect, 100 = complete control), Goosegrass ([4]; 62 g ai/ha, preemergence): 60
Plant response rating, Goosegrass [4, 14]: 85
Plant response rating, Goosegrass [4, 26]: 5
Plant response rating, Goosegrass [4, 27]: 0
Plant response rating, Goosegrass [4, 28]: 0
Plant response rating (0 = no effect, 100 = complete control), Surinam Grass ([5]; 62 g ai/ha, preemergence): 0
Plant response rating, Surinam Grass [5, 14]: 20
Plant response rating, Surinam Grass [5, 26]: 0
Plant response rating, Surinam Grass [5, 27]: 0
Plant response rating, Surinam Grass [5, 28]: 0
Plant response rating, Velvetleaf [6, 14]: 30
Plant response rating, Velvetleaf [6, 26]: 50
Plant response rating, Velvetleaf [6, 27]: 50
Plant response rating, Velvetleaf [6, 28]: 30
Plant response rating, Bermudagrass ([7]; 31 g ai/ha, scale 0 to 100, 0 no effect, 100 complete control, last section of Table C (species set of preemergence test)): 10
Plant response rating (0 = no effect, 100 = complete control), Bermudagrass ([7]; 62 g ai/ha, preemergence): 60
Plant response rating, Bermudagrass [7, 14]: 90
Plant response rating, Bermudagrass [7, 20]: 95
Plant response rating, Bermudagrass [7, 26]: 0
Plant response rating, Bermudagrass [7, 27]: 0
Plant response rating, Bermudagrass ([7]; postemergence, 31 g ai/ha, scale 0 to 100): 0
Plant response rating, Bermudagrass [7, 28]: 0
Plant response rating (0 = no effect, 100 = complete control), Johnsongrass ([8]; 62 g ai/ha, preemergence): 20
Plant response rating, Johnsongrass [8, 14]: 30
Plant response rating, Johnsongrass [8, 26]: 0
Plant response rating, Johnsongrass [8, 27]: 0
Plant response rating, Johnsongrass [8, 28]: 0
Plant response rating (0 = no effect, 100 = complete control), Corn ([9]; 62 g ai/ha, preemergence): 0
Plant response rating, Corn [9, 14]: 0
Plant response rating, Corn [9, 20]: 15
Plant response rating, Corn [9, 26]: 10
Plant response rating, Corn [9, 27]: 10
Plant response rating, Corn [9, 28]: 0
Ducksalad plant response rating [10, 21]: 0
Ducksalad plant response rating [10, 22]: 70
Ducksalad plant response rating [10, 23]: 85
Plant response rating, Ducksalad [10, 24]: 90
Barnyardgrass plant response rating [11, 21]: 15
Barnyardgrass plant response rating [11, 25]: 40
Barnyardgrass plant response rating [11, 23]: 55
Plant response rating, Barnyardgrass [11, 24]: 65
Plant response rating (0 = no effect, 100 = complete control), Morningglory ([12]; 62 g ai/ha, preemergence): 0
Plant response rating, Morningglory [12, 14]: 10
Plant response rating, Morningglory [12, 26]: 60
Plant response rating, Morningglory [12, 27]: 50
Plant response rating, Morningglory [12, 28]: 0
Crabgrass, Large plant response rating [13, 29]: 0
Plant response rating, Crabgrass, Large [13, 30]: 30
Crabgrass, Large plant response rating [13, 31]: 45
Crabgrass, Large plant response rating [13, 32]: 75
